# Assay results from US7858319B2, “Method of screening for drug hypersensitivity reaction” (SmithKline Beecham Corporation, priority 2001, dated 2010).
# Where a name gives a salt, the structure may show the parent alone.
# Assays:
# [1] = test system: TNFα gene; assay: Retrospective case-control study of abacavir hypersensitivity: TNFα polymorphisms (5′ nuclease assay); type: in vivo, human
# Text: Control subjects were matched for study (if possible) ethnicity, gender, CD4+ cell count (if available; four CD4+ ranges: <50, 50-200, 201-500, >500 cells/mm3); and age (plus or minus 5 years).
# The presence of the TNFα G(−237A) polymorphism may be determined using a fluorescent dye and quenching agent-based PCR assay, such as the allele discrimination form of the 5′ nuclease assay (Lee and Bloch, Nucleic Acids Research 21:3761 (1993)). In brief, this assay uses two allele specific probes labeled differentially with fluorescent “reporter” dyes at the 5′ ends and with a common quenching agent at the 3′ ends. Normally the fluorescence of each reporter dye is quenched by the quenching agent when present in the same oligonucleotide molecule. The allele specific probes are used in conjunction with two primers, one of which hybridizes to the template 5′ of allele specific probes while the other hybridizes to the template 3′ of the such probes.
# The presence of the TNFα G(−237)A polymorphisms was determined by the method of allelic discrimination using the 5′-nuclease assay. Two allele specific probes labeled with a different fluorescent dye at the 5′ ends, but with a common quenching agent at the 3′ ends, were used:
# The two allele specific probes were designed using specialized computer software as is known in the art, such that certain properties (melting temperature, GC content, position of the polymorphic base, location within the amplicon) were matched as far as possible, only allowing complete hybridisation to the template DNA when the allele specific polymorphic base was present.
# The allele specific probes were used in conjunction with two primers, one of which hybridized to the template 5′ of the two allele-specific probes, whilst the other hybridized to the template 3′ of the two probes:
# If the allele corresponding to one of the specific probes was present, the specific probe hybridized perfectly to the target sequence derived from the template. The thermostable polymerase, extending the primer in a 5′ to 3′ direction toward the allele specific probe, then removed the nucleotides from the specific probe, releasing both the fluorescent dye and the quenching agent.
# At the end of the thermal cycling PCR, the ABI PRISM™ 7700 sequence detection system was used to measure the increase in the fluorescence from each specific dye directly in PCR reaction vessels. The information from the reactions was then analyzed. If an individual was homozygous for a particular allele, fluorescence corresponding only to the dye from that specific probe was released, but if the individual was heterozygous, then fluorescence from both dyes increased.
# (§1) Informed consent was obtained. Subjects were classified as either ‘case’ or ‘control’. The following criteria were used to identify cases: • 1.
# (§2) Blood samples were collected into appropriate blood collection tubes.
# [2] = test system: HLA-B57 and TNFα-237; assay: Retrospective case-control study of abacavir hypersensitivity: HLA-B57 and TNFα-237 association; type: in vivo, human
# Text: as §1, §2
# All but two cases of hypersensitivity reactions with the TNFα-238A allele were also HLA-B57 positive; five cases of hypersensitivity that were HLA-B57 positive lacked the TNFα-238A allele.
# [3] = test system: Alcohol Dehydrogenase ADH7; assay: Retrospective case-control study of abacavir hypersensitivity: ADH7 polymorphism; type: in vivo, human; conditions: ADH7-C94T, Table 12
# Text: Informed consent was obtained. Subjects were classified as either ‘case’ or ‘control’. […] Blood samples were collected into appropriate blood collection tubes.
# [4] = test system: MICA; assay: Retrospective case-control study of abacavir hypersensitivity: MICA polymorphisms; conditions: Table 12
# [5] = test system: TNFα gene; assay: Retrospective case-control study of abacavir hypersensitivity: TNFα polymorphisms (5′ nuclease assay); type: in vivo, human; conditions: Table 12
# [6] = test system: UDP-glucuronosyltransferase (UGT1A6-A551C); assay: Retrospective case-control study of abacavir hypersensitivity: UGT1A6 polymorphism; type: in vivo, human; conditions: A1 = A, Table 12
# Text: as §1, §2
# [7] = test system: MICB; assay: Retrospective case-control study of abacavir hypersensitivity: MICB polymorphisms; type: in vivo, human; conditions: Table 12
# Text: A complete cds for the human MICB gene is provided at SEQ ID NO:4 (GenBank accession U65416). The MICB polymorphisms investigated in the present study included one in exon 2 (rs1065075) and one in exon 3 (rs1051788):
# as §1, §2
# [8] = MICA (exon 2) RS1063630, A1 = T
# [9] = MICA (exon 2) RS1063630, A2 = G
# [10] = MICA (exon 3) RS1051792, A1 = G
# [11] = MICA (exon 3) RS1051792, A2 = A
# [12] = MICA (−9, 263) RS1052416, A1 = A
# [13] = MICA (−9, 263) RS1052416, A2 = G
# [14] = MICB (exon 2) RS1065075, A1 = G
# [15] = MICB (exon 2) RS1065075, A2 = A
# [16] = MICB (exon 3) RS1051788, A1 = A
# [17] = MICB (exon 3) RS1051788, A2 = G
smiles,measurement,setting,value
"Nc1nc(NC2CC2)c2ncn([C@H]3C=C[C@@H](CO)C3)c2n1 [abacavir, (cis)-4-[2-amino-6-(cyclopropylamino)-9H-purin-9-yl]-2-cyclopentene-1-methanol sulfate (salt) (2:1)]","HSR cases carrying marker, %","[1]; TNFα (−237) RS361525, A2 = A, Table 12",43%
same,"HSR cases carrying marker, %","[1]; TNFα G(−237)A 1,1 (G/G), Table 4, Cases N = 44",50%
same,"Controls carrying marker, %","[1]; TNFα G(−237)A 1,1 (G/G), Table 4, Controls N = 76",93%
same,"HSR cases carrying marker, %","[1]; TNFα G(−237)A 1,1 (G/G), Table 8 cumulative, Cases N = 57",56%
same,"Controls carrying marker, %","[1]; TNFα G(−237)A 1,1 (G/G), Table 8 cumulative, Controls N = 99",93%
same,"HSR cases carrying marker, %","[1]; TNFα G(−237)A 1,2 (G/A), Table 4, Cases N = 44",45%
same,"Controls carrying marker, %","[1]; TNFα G(−237)A 1,2 (G/A), Table 4, Controls N = 76",5%
same,"HSR cases carrying marker, %","[1]; TNFα G(−237)A 1,2 (G/A), Table 8 cumulative, Cases N = 57",40%
same,"Controls carrying marker, %","[1]; TNFα G(−237)A 1,2 (G/A), Table 8 cumulative, Controls N = 99",6 (6%)
same,"HSR cases carrying marker, %","[1]; TNFα G(−237)A 2,2 (A/A), Table 4, Cases N = 44",5%
same,"Controls carrying marker, %","[1]; TNFα G(−237)A 2,2 (A/A), Table 4, Controls N = 76",1 (1%)
same,"HSR cases carrying marker, %","[1]; TNFα G(−237)A 2,2 (A/A), Table 8 cumulative, Cases N = 57",4%
same,"Controls carrying marker, %","[1]; TNFα G(−237)A 2,2 (A/A), Table 8 cumulative, Controls N = 99",1 (1%)
same,"Controls carrying marker, %","[2]; TNFα-237 A Allele, subjects with HLA-B57 present, Controls N 3",33%
same,"HSR cases carrying marker, %","[2]; TNFα-237 A Allele, subjects with HLA-B57 present, HSR Cases N 28",82%
same,"Controls carrying marker, %","[2]; TNFα-237 A Allele, subjects without HLA-B57, Controls N 96",5 (5) %
same,"HSR cases carrying marker, %","[2]; TNFα-237 A Allele, subjects without HLA-B57, HSR Cases N 30",7%
same,"Controls carrying marker, %","[2]; TNFα-237 Without A Allele, subjects with HLA-B57 present, Controls N 3",67%
same,"HSR cases carrying marker, %","[2]; TNFα-237 Without A Allele, subjects with HLA-B57 present, HSR Cases N 28",18%
same,"Controls carrying marker, %","[2]; TNFα-237 Without A Allele, subjects without HLA-B57, Controls N 96",95%
same,"HSR cases carrying marker, %","[2]; TNFα-237 Without A Allele, subjects without HLA-B57, HSR Cases N 30",93%
same,"Controls carrying marker, %",[3]; A1 = C,17%
same,"HSR cases carrying marker, %",[3]; A1 = C,5%
same,"Controls carrying marker, %",[3]; A2 = T,84%
same,"HSR cases carrying marker, %",[3]; A2 = T,96%
same,"Controls carrying marker, %",[4]; [8],96%
same,"HSR cases carrying marker, %",[4]; [8],83%
same,"Controls carrying marker, %",[4]; [9],48%
same,"HSR cases carrying marker, %",[4]; [9],67%
same,"Controls carrying marker, %",[4]; [10],90%
same,"HSR cases carrying marker, %",[4]; [10],77%
same,"Controls carrying marker, %",[4]; [11],58%
same,"HSR cases carrying marker, %",[4]; [11],82%
same,"Controls carrying marker, %",[4]; [12],70%
same,"HSR cases carrying marker, %",[4]; [12],92%
same,"Controls carrying marker, %",[4]; [13],72%
same,"HSR cases carrying marker, %",[4]; [13],37%
same,"Controls carrying marker, %","[5]; TNFα (−5, 100), A2 = G",31%
same,"HSR cases carrying marker, %","[5]; TNFα (−5, 100), A2 = G",13%
same,"Controls carrying marker, %","[5]; TNFα (−308) RS1800629, A2 = A",28 (28%)
same,"HSR cases carrying marker, %","[5]; TNFα (−308) RS1800629, A2 = A",8%
same,"Controls carrying marker, %",[6],60%
same,"HSR cases carrying marker, %",[6],77%
same,"Controls carrying marker, %",[7]; [14],57%
same,"HSR cases carrying marker, %",[7]; [14],38%
same,"Controls carrying marker, %",[7]; [15],92%
same,"HSR cases carrying marker, %",[7]; [15],100%
same,"Controls carrying marker, %",[7]; [16],58%
same,"HSR cases carrying marker, %",[7]; [16],38%
same,"Controls carrying marker, %",[7]; [17],93%
same,"HSR cases carrying marker, %",[7]; [17],100%
